Measurements as given in the supplement of paper PMC10307832.

Compound: C/C(=N\NC(=S)N1CCC1)/C2=CC=CC=N2 + CC(C)C[C@H](NC(=O)[C@H](Cc1ccccc1)NC(=O)c1cnccn1)B(O)O [Bortezomib] (partner 0.002 µM)
Assay: relative viability (nuclei count vs DMSO), 5 days (fraction); higher = more cells survive
Summary of the method: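 Lung cancer cell lines in 1536-well plates were dosed by pin tool the day after seeding, either with one drug alone or with a fixed anchor-drug dose plus five library-drug doses (not always all listed) in √10 steps. After 5 days, cells were fixed and their nuclei stained in one step (final 0.05% Triton X-100, 1% formaldehyde, 1 ug/ml Hoechst), then counted on 4× images. Relative viability is the nuclei count in treated wells divided by that in vehicle wells. Values are medians of duplicate plates.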

Row | Cell Line | relative viability (first compound 0.05 µM) | relative viability (first compound 0.1581 µM) | relative viability (first compound 0.5 µM) | relative viability (first compound 1.581 µM) | relative viability (first compound 5 µM)
1 | H3255 | 0.227 | 0.276 | 0.268 | 0.171 | 0.195
2 | EPLC-272H | 0.116 | 0.155 | 0.133 | 0.131 | 0.116
3 | PC-3 [JPC-3] | 0.377 | 0.318 | 0.312 | 0.292 | 0.215
4 | EKVX | 0.138 | 0.129 | 0.103 | 0.141 | 0.144
5 | ChaGo-K-1 | 0.285 | 0.462 | 0.285 | 0.221 | 0.318
6 | NCI-H23 | 0.108 | 0.148 | 0.171 | 0.105 | 0.136
7 | EMC-BAC-2 | 0.104 | 0.142 | 0.149 | 0.174 | 0.16
8 | LOU-NH91 | 0.435 | 0.443 | 0.501 | 0.37 | 0.387
9 | LU99A | 0.135 | 0.108 | 0.165 | 0.124 | 0.147
10 | NCI-H460 | 0.0169 | 0.0164 | 0.0256 | 0.0129 | 0.0105
11 | 201T | 0.527 | 0.612 | 0.418 | 0.394 | 0.348
12 | NCI-H2405 | 0.275 | 0.31 | 0.322 | 0.286 | 0.989
13 | NCI-H1703 | 0.0746 | 0.0958 | 0.166 | 0.134 | 0.171
14 | NCI-H1755 | 0.331 | 0.287 | 0.208 | 0.206 | 0.204
15 | NCI-H2087 | 0.219 | 0.223 | 0.309 | 0.132 | 0.125
16 | NCI-H2228 | 0.169 | 0.295 | 0.161 | 0.119 | 0.179
17 | NCI-H727 | 0.171 | 0.214 | 0.156 | 0.174 | 0.184
18 | NCI-H650 | 0.181 | 0.238 | 0.199 | 0.134 | 0.196
19 | NCI-H520 | 0.137 | 0.167 | 0.126 | 0.102 | 0.166
20 | EBC-1 | 0.177 | 0.226 | 0.169 | 0.162 | 0.174
21 | NCI-H661 | 0.213 | 0.2 | 0.185 | 0.217 | 0.185
22 | NCI-H1299 | 0.111 | 0.155 | 0.206 | 0.209 | 0.138
23 | NCI-H1993 | 0.431 | 0.506 | 0.463 | 0.406 | 0.483

Row | Cell Line | relative viability (first compound 0.05 µM) | relative viability (first compound 0.1581 µM) | relative viability (first compound 0.5 µM) | relative viability (first compound 1.581 µM) | relative viability (first compound 5 µM)
24 | NCI-H838 | 0.165 | 0.181 | 0.172 | 0.134 | 0.145
25 | NCI-H1437 | 0.121 | 0.137 | 0.0867 | 0.0717 | 0.0851
26 | LCLC-103H | 0.294 | 0.353 | 0.242 | 0.229 | 0.206
27 | NCI-H441 | 0.162 | 0.153 | 0.171 | 0.146 | 0.127
28 | SK-LU-1 | 0.218 | 0.263 | 0.212 | 0.194 | 0.268
29 | BEN | 0.15 | 0.211 | 0.211 | 0.193 | 0.165
30 | LC-2-ad | 0.115 | 0.106 | 0.114 | 0.104 | 0.0851
31 | COR-L23 | 0.12 | 0.139 | 0.114 | 0.077 | 0.0874
32 | NCI-H1650 | 0.177 | 0.2 | 0.182 | 0.188 | 0.168
33 | RERF-LC-KJ | 0.256 | 0.298 | 0.304 | 0.243 | 0.267
34 | NCI-H1915 | 0.319 | 0.182 | 0.159 | 0.149 | 0.137
35 | NCI-H596 | 0.518 | 0.309 | 0.237 | 0.233 | 0.276
36 | IA-LM | 0.0596 | 0.0778 | 0.0529 | 0.0604 | 0.0675
37 | NCI-H2009 | 0.117 | 0.126 | 0.138 | 0.122 | 0.0916
38 | NCI-H2126 | 0.364 | 0.244 | 0.223 | 0.201 | 0.186
39 | LXF-289 | 0.314 | 0.216 | 0.255 | 0.203 | 0.121
40 | NCI-H1563 | 0.664 | 0.701 | 0.611 | 0.574 | 0.553
41 | HCC-44 | 0.335 | 0.234 | 0.221 | 0.19 | 0.239
42 | PC-14 | 0.114 | 0.106 | 0.0629 | 0.0768 | 0.0781
43 | HOP-62 | 0.067 | 0.0599 | 0.0594 | 0.0602 | 0.0491
44 | NCI-H1666 | 0.218 | 0.271 | 0.232 | 0.198 | 0.221
45 | NCI-H1355 | 0.2 | 0.205 | 0.21 | 0.212 | 0.195
46 | HCC-827 | 0.497 | 0.497 | 0.325 | 0.274 | 0.282

Row | Cell Line | relative viability (first compound 0.05 µM) | relative viability (first compound 0.1581 µM) | relative viability (first compound 0.5 µM) | relative viability (first compound 1.581 µM) | relative viability (first compound 5 µM)
47 | HARA | 0.22 | 0.143 | 0.197 | 0.13 | 0.0787
48 | HCC-366 | 0.0281 | 0.0189 | 0.0149 | 0.0223 | 0.02
49 | NCI-H322M | 0.176 | 0.295 | 0.296 | 0.287 | 0.324
50 | NCI-H2347 | 0.299 | 0.329 | 0.401 | 0.268 | 0.263
51 | NCI-H1975 | 0.15 | 0.144 | 0.134 | 0.147 | 0.156
52 | UMC-11 | 0.175 | 0.173 | 0.141 | 0.141 | 0.101
53 | ABC-1 | 0.296 | 0.273 | 0.233 | 0.276 | 0.283
54 | A-427 | 0.171 | 0.147 | 0.126 | 0.117 | 0.114
55 | LCLC-97TM1 | 0.0597 | 0.0472 | 0.0458 | 0.0548 | 0.0452
56 | HCC-15 | 0.133 | 0.0661 | 0.0658 | 0.0754 | 0.0698
57 | NCI-H647 | 0.165 | 0.105 | 0.0582 | 0.072 | 0.0851
58 | SW 1573 | 0.143 | 0.115 | 0.151 | 0.117 | 0.087
59 | NCI-H1651 | 0.167 | 0.149 | 0.151 | 0.15 | 0.137
60 | NCI-H1792 | 0.478 | 0.5 | 0.219 | 0.16 | 0.126
61 | NCI-H2023 | 0.096 | 0.0935 | 0.0847 | 0.0887 | 0.0763
62 | COR-L 105 | 0.287 | 0.339 | 0.297 | 0.253 | 0.244
63 | NCI-H1734 | 0.228 | 0.205 | 0.174 | 0.123 | 0.107
64 | NCI-H3122 | 0.17 | 0.139 | 0.222 | 0.244 | 0.203
65 | CAL-12T | 0.21 | 0.252 | 0.256 | 0.215 | 0.24
66 | HCC-78 | 0.509 | 0.257 | 0.178 | 0.153 | 0.232
67 | NCI-H2085 | 0.33 | 0.298 | 0.323 | 0.269 | 0.262
